Measured values reported in patent US5541183A, “Ginkgolide derivatives” (priority 1993, dated 1996).
Like-named read-outs stand apart in the source and are kept apart here.

Tested on: PAF-induced rabbit platelet aggregation
Assay: PAF-induced rabbit platelet aggregation
Format: cell-based, rabbit (New Zealand white)
Details: Oryctolagus cuniculus, read-out: IC50, inhibition of PAF-induced rabbit platelet aggregation
Protocol: Pharmacology Example 1: PAF-induced rabbit platelet aggregation
Blood was collected from the ear artery of a male New Zealand white rabbit and mixed with 3.8% sodium citrate in a 9:1 volume ratio. Platelet rich plasma (PRP) was obtained by centrifugation of the blood at 150 g for 10 min at room temperature. The number of platelets was adjusted to 3×10^8 platelets/ml with platelet poor plasma. Platelet aggregation was monitored by continuous recording of light transmission in a dual-channel aggregometer (Chrono-Log 560-VS) coupled with a two channel recorder (Chrono-Log 707). Stirred PRP was treated with various concentrations of the test compounds or vehicle (0.5% DMSO) for 2 min and then PAF(5×10^-9 M) was added to induce platelet aggregation.
Inhibition values were calculated by comparing the extent of aggregation obtained in the presence of the vehicle alone (0.5% DMSO) and in the presence of a test compound. Log concentration-response curves were generated and the IC50 values were determined by regression analysis.
Table 1 lists results from this assay for inhibition of PAF-induced rabbit platelet aggregation for illustrative examples of the compounds of this invention.

Row | IC50 (rabbit PRP, PAF 5×10^-9 M) [nM] | SMILES | IC50 [nM]
1 | 131 | CC1C(=O)OC2C(O)C34C5CC(C(C)(C)C)C36C(OC(=O)C6OCc3ccc6ccccc6n3)OC4(C(=O)O5)C12O (centres unmarked) [Example 102, 10-(2-quinolinyl)-methoxy-Ginkgolide B] | –
2 | 72.1 | CC1C(=O)OC2C(O)C34C5CC(C(C)(C)C)C36C(OC(=O)C6OCc3ccc(Cl)cc3Cl)OC4(C(=O)O5)C12O (centres unmarked) [Example 2, 10-(2',4'-dichlorobenzyloxy)-Ginkgolide B] | –
3 | 102 | CC1C(=O)OC2C(OCc3ccc(Cl)cc3Cl)C34C5CC(C(C)(C)C)C36C(OC(=O)C6OCc3ccc(Cl)cc3Cl)OC4(C(=O)O5)C12O (centres unmarked) [Example 92, 1,10-bis(2',4'-dichlorobenzyloxy)-Ginkgolide B] | –
4 | 101 | CC1C(=O)OC2C(O)C34C5CC(C(C)(C)C)C36C(OC(=O)C6OCc3ccc(Cl)c(Cl)c3)OC4(C(=O)O5)C12O (centres unmarked) [Example 11] | –
5 | – | CC1C(=O)OC2C(O)C34C5CC(C(C)(C)C)C36C(OC(=O)C6OCc3ccc([N+](=O)[O-])cc3)OC4(C(=O)O5)C12O (centres unmarked) [Example 44] | 83.1
6 | 159 | CC1C(=O)OC2C(O)C34C5CC(C(C)(C)C)C36C(OC(=O)C6OCCCOc3ccccc3)OC4(C(=O)O5)C12O (centres unmarked) [Example 78, 10-(3'-phenoxypropoxy)-Ginkgolide B] | –
7 | 157 | CCOc1ccnc(COC2C(=O)OC3OC45C(=O)OC6CC(C(C)(C)C)C32C64C(O)C2OC(=O)C(C)C25O)c1 (centres unmarked) [Example 110] | –
8 | – | COCCOCOc1ccc(COC2C(=O)OC3OC45C(=O)OC6CC(C(C)(C)C)C32C64C(O)C2OC(=O)C(C)C25O)nc1 (centres unmarked) [Example 114] | 139
9 | 121 | CC1C(=O)OC2C(O)C34C5CC(C(C)(C)C)C36C(OC(=O)C6OCc3ccc(C(F)(F)F)cc3)OC4(C(=O)O5)C12O (centres unmarked) [Example 94, 10-(4'-trifluoromethylbenzyloxy)-Ginkgolide B] | –
10 | 62.1 | Cc1cc(COC2C(=O)OC3OC45C(=O)OC6CC(C(C)(C)C)C32C64C(O)C2OC(=O)C(C)C25O)cc(C)c1O (centres unmarked) [Example 27] | –
11 | 82.1 | CC1C(=O)OC2C(O)C34C5CC(C(C)(C)C)C36C(OC(=O)C6OS(=O)(=O)c3ccccc3)OC4(C(=O)O5)C12O (centres unmarked) [Example 90, 10-benzenesulfonyloxy-Ginkgolide B] | –
12 | – | CC1C(=O)OC2C(O)C34C5CC(C(C)(C)C)C36C(OC(=O)C6OCc3ccccc3F)OC4(C(=O)O5)C12O (centres unmarked) [Example 87, 10-(2'-fluorobenzyloxy)-Ginkgolide B] | 107
13 | 87.1 | CC1C(=O)OC2C(OCc3ccc(C(F)(F)F)cc3)C34C5CC(C(C)(C)C)C36C(OC(=O)C6OCc3ccc(C(F)(F)F)cc3)OC4(C(=O)O5)C12O (centres unmarked) [Example 95] | –
14 | – | CC1C(=O)OC2C(O)C34C5CC(C(C)(C)C)C36C(OC(=O)C6OCc3ccc(N)cc3)OC4(C(=O)O5)C12O (centres unmarked) [Example 75] | 116
15 | 52.1 | CCCCc1ccc(COC2C(=O)OC3OC45C(=O)OC6CC(C(C)(C)C)C32C64C(O)C2OC(=O)C(C)C25O)nc1 (centres unmarked) [Example 100, 10-(5-butyl-2-pyridinyl)-methoxy-Ginkgolide B] | –
16 | 46.7 | Cc1ccc(COC2C(=O)OC3OC45C(=O)OC6CC(C(C)(C)C)C32C64C(O)C2OC(=O)C(C)C25O)cc1 (centres unmarked) [Example 43, 10-(4'-methylbenzyloxy)-Ginkgolide B] | –
17 | 62.1 | CC1C(=O)OC2C(OC(=O)c3ccccc3)C34C5CC(C(C)(C)C)C36C(OC(=O)C6O)OC4(C(=O)O5)C12O (centres unmarked) [Example 89, 1-benzoyloxy-Ginkgolide B] | –

Row | IC50 (rabbit PRP, PAF 5×10^-9 M) [nM] | SMILES | IC50 [nM]
18 | 57.1 | CC1C(=O)OC2C(O)C34C5CC(C(C)(C)C)C36C(OC(=O)C6OCc3ccc(O)cc3)OC4(C(=O)O5)C12O (centres unmarked) [Example 25] | –
19 | 78.1 | CC1C(=O)OC2C(O)C34C5CC(C(C)(C)C)C36C(OC(=O)C6OCc3cc(C(C)(C)C)c(O)c(C(C)(C)C)c3)OC4(C(=O)O5)C12O (centres unmarked) [Example 31] | –
20 | 47.1 | Cc1cnc(COC2C(=O)OC3OC45C(=O)OC6CC(C(C)(C)C)C32C64C(O)C2OC(=O)C(C)C25O)c(C)c1N(O)C(=O)c1ccccc1 (centres unmarked) [Example 106, 10-(4-N-benzoyl-N-hydroxyamino-3,5-dimethyl-2-pyridinyl)-methoxy Ginkgolide B] | –
21 | 52.1 | CC1C(=O)OC2C(O)C34C5CC(C(C)(C)C)C36C(OC(=O)C6OCc3ccc(-c6ccccc6)cc3)OC4(C(=O)O5)C12O (centres unmarked) [Example 81, 10-(4'-phenylbenzyloxy)-Ginkgolide B] | –
22 | 32.5 | Cc1cnc(COC2C(=O)OC3OC45C(=O)OC6CC(C(C)(C)C)C32C64C(O)C2OC(=O)C(C)C25O)c(C)c1NC(=O)c1ccccc1 (centres unmarked) [Example 105, 10-(4-benzoylamino-3,5-dimethyl-2-pyridinyl)-methoxy-Ginkgolide B] | –
23 | 37.1 | COc1cc(COC2C(=O)OC3OC45C(=O)OC6CC(C(C)(C)C)C32C64C(O)C2OC(=O)C(C)C25O)ccc1O (centres unmarked) [Example 28] | –
24 | 101 | Cc1cc(COC2C(=O)OC3OC45C(=O)OC6CC(C(C)(C)C)C32C64C(O)C2OC(=O)C(C)C25O)cc(N)c1O (centres unmarked) [Example 35] | –
25 | 62.1 | CC1C(=O)OC2C(O)C34C5CC(C(C)(C)C)C36C(OC(=O)C6OCCn3cncn3)OC4(C(=O)O5)C12O (centres unmarked) [Example 120, 10-(2'-(1"-(1",2",4"-triazolyl)-ethoxy))-Ginkgolide B] | –
26 | 68 | CC1C(=O)OC2C(O)C34C5CC(C(C)(C)C)C36C(OC(=O)C6OCc3cccc(F)c3)OC4(C(=O)O5)C12O (centres unmarked) [Example 84, 10-(3'-fluorobenzyloxy)-Ginkgolide B] | –
27 | 44.3 | Cc1ccccc1COC1C(=O)OC2OC34C(=O)OC5CC(C(C)(C)C)C21C53C(OCc1ccccc1C)C1OC(=O)C(C)C14O (centres unmarked) [Example 42, 1,10-bis(2'-methylbenzyloxy)-Ginkgolide B] | –
28 | 111 | CC1C(=O)OC2C(O)C34C5CC(C(C)(C)C)C36C(OC(=O)C6OCc3cc(NO)ccn3)OC4(C(=O)O5)C12O (centres unmarked) [Example 113, 10-(2-(4-hydroxyaminopyridinyl)-methoxy)-Ginkgolide B] | –
29 | 57.1 | CC1C(=O)OC2C(O)C34C5CC(C(C)(C)C)C36C(OC(=O)C6OCCN3CCNCC3)OC4(C(=O)O5)C12O (centres unmarked) [Example 121, 10-(2'-(1"-piperazinyl)-ethoxy)-Ginkgolide B] | –
30 | – | CC1C(=O)OC2C(O)C34C5CC(C(C)(C)C)C36C(OC(=O)C6OCc3ccc(OC(F)(F)F)cc3)OC4(C(=O)O5)C12O (centres unmarked) [Example 24] | 42.1
31 | 157 | CC1C(=O)OC2C(O)C34C5CC(C(C)(C)C)C36C(OC(=O)C6OCc3ccc(Cl)nc3)OC4(C(=O)O5)C12O (centres unmarked) [Example 107, 10-(6-chloro-3-pyridinyl)-methoxy-Ginkgolide B] | –
32 | – | CC1C(=O)OC2C(O)C34C5CC(C(C)(C)C)C36C(OC(=O)C6OC(=O)c3ccccc3)OC4(C(=O)O5)C12O (centres unmarked) [Example 88, 10-benzoyloxy-Ginkgolide B] | 48.2
33 | 85.8 | COc1ccc(COC2C(=O)OC3OC45C(=O)OC6CC(C(C)(C)C)C32C64C(O)C2OC(=O)C(C)C25O)cc1 (centres unmarked) [Example 14, 10-(4'-methoxybenzyloxy)-Ginkgolide B] | –

Row | SMILES | IC50 (rabbit PRP, PAF 5×10^-9 M) [nM] | IC50 [nM]
34 | CC1C(=O)OC2C(O)C34C5CC(C(C)(C)C)C36C(OC(=O)C6OCCBr)OC4(C(=O)O5)C12O (centres unmarked) [Example 116, 10-(2'-bromoethoxy)-Ginkgolide B] | 113 | –
35 | COc1cc(C(=O)OC2C(=O)OC3OC45C(=O)OC6CC(C(C)(C)C)C32C64C(O)C2OC(=O)C(C)C25O)cc(OC)c1OC (centres unmarked) [Example 80, 10-(3',4'.5'-trimethoxybenzoyloxy)-Ginkgolide B] | 114 | –
